We go through 36 compounds from publication PMC5681660, “Reduced hepatitis B and D viral entry using clinically applied drugs as novel inhibitors of the bile acid transporter NTCP” (Scientific Reports, 2017).

Structures can show the parent of a compound that is named as a salt.

The target of the assay is T1, human NTCP (Homo sapiens, UniProt Q14973).
T1 sequence (Q14973 1-349): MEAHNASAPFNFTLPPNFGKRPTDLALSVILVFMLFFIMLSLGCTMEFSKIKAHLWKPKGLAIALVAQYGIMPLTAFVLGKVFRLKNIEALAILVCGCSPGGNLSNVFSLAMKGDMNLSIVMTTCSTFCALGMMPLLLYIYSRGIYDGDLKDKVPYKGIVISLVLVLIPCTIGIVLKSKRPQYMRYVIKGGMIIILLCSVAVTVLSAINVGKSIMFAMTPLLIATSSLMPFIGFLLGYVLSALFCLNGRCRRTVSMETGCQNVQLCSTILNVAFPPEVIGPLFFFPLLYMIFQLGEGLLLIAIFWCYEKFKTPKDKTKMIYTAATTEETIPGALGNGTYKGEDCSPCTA
Kind of assay: Screening taurocholate uptake assay (96-well, [14C]taurocholate, 10 µM drug). Conditions: for B-score functional assay: screening taurocholate uptake, 10 µM drug.

Where [1] appears, read: ranking over the functional and the binding screening assay.
Setting [2] is: combined ranking of functional and binding screening assays.

As to `CCOC(=O)O[C@]1(C(=O)COC(=O)CC)CC[C@H]2[C@@H]3CCC4=CC(=O)C=C[C@]4(C)[C@H]3[C@@H](O)C[C@@]21C` [Prednicarbate], the B-score functional assay was -1.448. Moreover, under setting [1], the Ranking score is reported as 140.036.
Take `Nc1ccccc1S(N)(=O)=O` [2-Aminobenzenesulfonamide]: the B-score functional assay is given as -0.592. In addition, under setting [2], the Ranking score was 626.378.
Taken in the same sequence, the figures for `CO[C@]12C[C@@H](COC(=O)c3cncc(Br)c3)CN(C)[C@@H]1Cc1cn(C)c3cccc2c13` [Nicergoline] were -0.256 and 615.79.
In the same order, the values of `CN1CCN(C(c2ccccc2)c2ccccc2)CC1.Cl` [Cyclizine hydrochloride] are -0.953 and 578.424.
In the same order, the values of `CC[N+](CC)(CC(=O)Nc1c(C)cccc1C)Cc1ccccc1` [Denatonium benzoate] are -0.069 and 531.85.
Turning to `C[C@]12N[C@H](Cc3ccccc31)c1ccccc12` [Dizocilpine maleate], the B-score functional assay was -0.357. The Ranking score under setting [2] came out at 484.42.
Regarding `Cl.OC1CCCCC1N1CCC(c2ccccc2)CC1` (stereo not drawn) [L(-)-vesamicol hydrochloride], the B-score functional assay is on record as -0.315. In addition, under setting [1], the Ranking score is recorded as 206.223.
On to `CC(C(=O)O)c1ccc(-c2ccccc2)c(F)c1` (stereo not drawn) [Flurbiprofen], for which the B-score functional assay is given as -0.613. The Ranking score under setting [2] amounted to 612.059.
In the case of `C[C@@H]1C[C@H]2[C@@H]3CCC4=CC(=O)C=C[C@]4(C)[C@@]3(Cl)[C@@H](O)C[C@]2(C)[C@@]1(OC(=O)c1ccco1)C(=O)CCl` [Mometasone furoate], the B-score functional assay is given as -0.4. This compound also came in with a Ranking score under setting [1] of 101.489.
For the compound `N#Cc1cc(NC(=O)C(=O)O)c(Cl)c(NC(=O)C(=O)O)c1` [Lodoxamide], the B-score functional assay is recorded as -0.138. Moreover, the Ranking score under setting [2] is on record as 609.015.
In the same order, the values of `Cc1cc(C(=O)NNCc2ccccc2)no1` [Isocarboxazid] are 0.681 and 552.74.
In the case of `CCCCOc1cc(C(=O)NCCN(CC)CC)c2ccccc2n1` [Dibucaine], under setting [2], the Ranking score was determined as 1210.75. The compound further yielded a B-score functional assay (B-score) of 1.579.
Consider `OCCOCCN1CCN(C2=Nc3ccccc3Sc3ccccc32)CC1` [Quetiapine hemifumarate], for which the B-score functional assay is reported as -0.346. For the same compound, under setting [2], the Ranking score is listed as 473.772.
In the same order, the values of `C=C1C[C@@H]2[C@H](CC[C@]3(C)C(=O)CC[C@@H]23)[C@@]2(C)C=CC(=O)C=C12` [Exemestane] are -0.634 and 568.146.
Turning to `CC(=O)N(O)CCCCCNC(=O)CCC(=O)N(O)CCCCCNC(=O)CCC(=O)N(O)CCCCCN` [Deferoxamine mesylate], the B-score functional assay is given as -0.936. The compound further had a Ranking score under setting [1] of 277.171.
Regarding `OC(CCN1CCCCC1)(c1ccccc1)C1CC2C=CC1C2` (stereo not drawn) [Biperiden hydrochloride], the B-score functional assay is -0.229. The Ranking score under setting [2] turned out to be 526.369.
Taken in the same sequence, the figures for `Clc1cccc(Cl)c1N=C1NCCN1` [Clonidine hydrochloride] were 0.689 and 587.566.
As for `C[C@@H]1CCC[C@H](C)N1NC(=O)c1ccc(Cl)c(S(N)(=O)=O)c1` [Clopamide], the B-score functional assay is -0.164. The same compound came in with a Ranking score under setting [1] of 216.069.
On to `CCOc1cc(CC(=O)N[C@@H](CC(C)C)c2ccccc2N2CCCCC2)ccc1C(=O)O` [Repaglinide], for which the B-score functional assay is listed as -2.984. This compound also displayed a Ranking score under setting [1] of 233.103.
Turning to `CNc1ncnc2c1ncn2[C@@H]1O[C@H](CO)[C@@H](O)[C@H]1O` [N6-methyladenosine], the B-score functional assay came to 0.107. For the same compound, the Ranking score under setting [2] stood at 568.625.
In the same order, the values of `CCCC(=O)Nc1ncnc2c1ncn2[C@@H]1O[C@@H]2COP(=O)([O-])O[C@H]2[C@H]1OC(=O)CCC.[Na+]` [Bucladesine sodium salt] are -0.403 and 477.022.
For `C#C[C@]1(OC(C)=O)CC[C@H]2[C@@H]3CCC4=C[C@@H](OC(C)=O)CC[C@@H]4[C@H]3CC[C@@]21C` [Ethynodiol diacetate], the B-score functional assay is -1.671. Further, the Ranking score under setting [1] is 238.458.
Compound `CC(C)NCC(O)c1cc(O)cc(O)c1.CC(C)NCC(O)c1cc(O)cc(O)c1.O=S(=O)(O)O` (stereo not drawn) displayed a B-score functional assay of 0.057. Also, under setting [2], the Ranking score was 489.878.
In turn, `C=C1c2c(Cl)ccc(O)c2C(=O)C2=C(O)[C@]3(O)C(=O)C(C(N)=O)=C(O)[C@@H](N(C)C)[C@@H]3[C@@H](O)[C@H]12.O=C(O)c1cc(S(=O)(=O)O)ccc1O` [Meclocycline sulfosalicylate] showed a B-score functional assay of 0.486. The Ranking score under setting [2] stood at 647.296.
In the same order, the values of `CCN(CC)CCc1nc(-c2ccccc2)no1.O=C(O)CC(O)(CC(=O)O)C(=O)O` [Oxalamine citrate salt] are 0.505 and 587.786.
In the same order, the values of `CCS(=O)(=O)CCn1c([N+](=O)[O-])cnc1C` [Tinidazole] are -0.469 and 478.029.
In the same order, the values of `CO[C@H]1/C=C/O[C@@]2(C)Oc3c(C)c(O)c4c(O)c(c5c(nc6cc(C)ccn65)c4c3C2=O)NC(=O)/C(C)=C\C=C\[C@H](C)[C@H](O)[C@@H](C)[C@@H](O)[C@@H](C)[C@H](OC(C)=O)[C@@H]1C` [Rifaximin] are -0.408 and 627.999.
`O=C(CCCCCCC(=O)Nc1ccccc1)NO` [Vorinostat]: the B-score functional assay is -0.284. Moreover, the Ranking score under setting [2] is reported as 583.003.
With `CS(=O)(=O)c1ccc([C@@H](O)[C@@H](CO)NC(=O)C(Cl)Cl)cc1` [Thiamphenicol], the B-score functional assay is reported as -0.089. For the same compound, the Ranking score under setting [2] is 545.996.
On to `O=c1[nH]c2ccccc2n1C1CCN(CCCC(c2ccc(F)cc2)c2ccc(F)cc2)CC1` [Pimozide], for which the B-score functional assay is on record as -2.417. Besides, the Ranking score under setting [1] is listed as 234.734.
As for `Cc1cccc(Nc2ccccc2C(=O)O)c1C` [Mefenamic acid], the B-score functional assay was -1.919. Also, under setting [1], the Ranking score came to 180.289.
`CN1CCN2c3ncccc3Cc3ccccc3C2C1` (stereo not drawn) [Mirtazapine] registered a B-score functional assay of 0.174. Further, the Ranking score under setting [2] turned out to be 576.426.
Taken in the same sequence, the figures for `CSc1nc2cc(Cl)c(Oc3cccc(Cl)c3Cl)cc2[nH]1` [Triclabendazole] were -0.202 and 541.575.
Taken in the same sequence, the figures for `CN1CCCC(CC2c3ccccc3Sc3ccccc32)C1` (stereo not drawn) [Metixene hydrochloride] were 0.08 and 516.538.
As to `C[C@H](O)C(=O)Nc1c(I)c(C(=O)NC(CO)CO)c(I)c(C(=O)NC(CO)CO)c1I` [Iopamidol], the B-score functional assay is -2.672. For the same compound, under setting [1], the Ranking score is on record as 105.925.
`C[C@@H](O)[C@H]1C(=O)N2C(C(=O)O)=C(SCCN=CN)C[C@H]12` [Imipenem]: the Ranking score under setting [2] is 1154.72. Also, for the setting “B-score”, the B-score functional assay is 1.996.
